The values that follow come from patent publication US20240182454A1, “Polycyclic Compound for Inhibiting RNA Helicase DHX33, and Application of Compound” (Shenzhen KeYe Life Technologies, Co., Ltd, priority 2021, published 2024).

The subject of one experiment is U251-MG cells. Nature of the experiment: Half-maximal cell-inhibitory concentration on U251-MG cells (CCK-8). The conditions noted are these: Homo sapiens, U-251, U251-MG cells (DHX33-overexpressing), 48 hours incubation, read-out: IC50, half-maximal inhibitory concentrations of compounds on U251-MG cell. The format is cell-based. How it is done: U251-MG cells were purchased from the cell bank of the Chinese Academy of Sciences. Cells were cultured in MEM medium containing 10% fetal bovine serum (FBS), 2 mM L-glutamine, streptomycin and penicillin. The growth conditions were set as follows: a humidified cell incubator (37° C., 5% CO2). Cells were passaged every 3 days and were discarded after 10 passages.
U251-MG cells (a DHX33-overexpressing cancer cell strain) were seeded on a 96-well plate at 1×10^4 cells/100 μl/well. After the cells were completely attached, the compounds were added to the cell culture medium at a concentration of 5 nM, 10 nM, 25 nM, 50 nM, 100 nM, 250 nM, 500 nM, 1000 nM, 2000 nM, 5000 nM, 10 μM or 20 μM, and the resulting mixture was uniformly mixed with a multichannel pipette. After the cells were incubated with the compound for 48 hours, CCK-8 reagent (Yeasen Biotechnology (Shanghai) Co., Ltd.) was added to the medium in the 96-well plate in accordance with the standard procedure. After being incubated for 2 hours, the plate was read with a microplate reader (OD=450 nm). The experiment was repeated three times, the inhibiton curve of the compound at different concentrations was plotted, and the half-maximal inhibitory concentration (IC50) of the compound was calculated.

The next experiment has as its target T1, DHX33 protein (Mus musculus, UniProt Q80VY9).
T1 construct: 0.25 μg of purified full-length DHX33 protein; made in house; host or cells: E. coli BL-21pLysS (DE3)
T1 sequence (Q80VY9 1-698): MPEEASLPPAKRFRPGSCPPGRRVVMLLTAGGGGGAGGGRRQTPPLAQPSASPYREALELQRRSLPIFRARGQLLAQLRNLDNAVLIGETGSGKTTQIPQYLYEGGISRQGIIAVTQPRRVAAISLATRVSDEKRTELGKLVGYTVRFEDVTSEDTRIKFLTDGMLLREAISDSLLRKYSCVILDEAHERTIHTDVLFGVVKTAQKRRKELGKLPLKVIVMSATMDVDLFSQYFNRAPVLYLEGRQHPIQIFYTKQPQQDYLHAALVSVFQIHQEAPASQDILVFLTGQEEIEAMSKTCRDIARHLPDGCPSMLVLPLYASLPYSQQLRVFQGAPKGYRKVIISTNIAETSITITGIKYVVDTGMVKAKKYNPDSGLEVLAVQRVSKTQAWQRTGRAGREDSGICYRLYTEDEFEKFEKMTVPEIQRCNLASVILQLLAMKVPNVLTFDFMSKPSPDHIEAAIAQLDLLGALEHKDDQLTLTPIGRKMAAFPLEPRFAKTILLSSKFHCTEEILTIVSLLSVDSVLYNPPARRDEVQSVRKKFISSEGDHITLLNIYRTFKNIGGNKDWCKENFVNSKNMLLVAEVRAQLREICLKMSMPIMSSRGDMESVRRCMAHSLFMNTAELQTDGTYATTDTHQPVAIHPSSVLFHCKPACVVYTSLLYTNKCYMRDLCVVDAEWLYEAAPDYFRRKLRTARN
Kind of experiment: Inhibition of the helicase activity of DHX33 protein in vitro. It counts as biochemical. The conditions noted are these: recombinant DHX33 protein, compound 1-1000 nM, 37° C. 60 minutes; read-out: IC50, inhibitory effects of the compounds on the helicase activity of DHX33 protein. The protocol:
Biochemistry. 2019;58 (4):250-8. RNA helicase gene (mouse DHX33 gene) was cloned into a pET32M-3C vector (between BamH I/Not I restriction sites). Afterward, the plasmid was transformed into BL-21pLysS (DE3) E. coli. 0.5 mM isopropyl 1-thio-P-D-galactopyranoside (IPTG) was added, and the expression of the recombinant protein was induced at 16° C. for 16 hours. Cells were allowed to precipitate and were resuspended in a cell lysis buffer [50 mM Tris-HCl (pH7.2), 150 mM NaCl, 1% Triton X-100, and 50 mM imidazole supplemented with a protease inhibitor]. Thereafter, cells were subjected to ultrasonic treatment and centrifuged at a rotation speed of 13000 rpm for 25 minutes. The supernatant was incubated with the nickel-nitrilotriacetic acid beads equilibrated in Tris buffer, followed by sufficient washing. Thereafter, the purified protein was eluted with a solution of 300 mM imidazole in Tris buffer, and was then subjected to dialysis against an imidazole-free Tris buffer at 4° C. overnight.
The components involved in the reaction for testing the helicase activity were added to a 96-well opaque white plate. The method was outlined as follows. The 96-well plate was coated with neutravidin at a final concentration of 10 μg/mL (100 μL/well) overnight at 4° C. Afterwards, the neutravidin-coated plate was blocked with 100 μL of 0.1% (w/v) BSA (dissolved in normal PBS) at 22° C. for 2 hours. After washing, a DNA duplex (2.5 ng) that was resulted from the annealing of two single-stranded DNA oligonucleotides (the sequence of one single strand was biotin-labeled 5′-[…]-3; and the sequence of the other single strand was DIG-labeled 5′-[…]-3′) [the annealing reaction was carried out in PBS (pH 7.0) containing 1M NaCl] was added, and the resulting mixture was incubated at 22° C. for 4 hours. After the addition of 90 μL of the reaction mixture, the helicase reaction was initiated [0.25 μg of purified full-length DHX33 protein, dissolved in 25 mM 4-MOPS (pH 7.0), 5 mM ATP, 2 mM DTT, 3 mM MnCl2 and 100 μg/mL BSA]. The reaction was conducted at 37° C. for 60 minutes. After being washed, each well was incubated with a blocking solution [10% (w/v) BSA in 0.1 M maleic acid and 0.15 M NaCl (pH 7.5)] for 30 minutes, and was then incubated with 20 μL of antibody solution (anti-DIG-AP, Roche, in blocking buffer) for 30 minutes. After being washed with 100 μL of detection buffer [0.1 M Tris-HCl and 0.1 M NaCl (pH 9.5)], each well was added with 1 μL of chemiluminescent substrate (CSPD-0.25 mM), and the plate was incubated at 17° C. for 5 minutes. […] The remaining DIG-AP marker control in each well was counted for 10 minutes by a luminescence multi-well plate reader (Enspire, PerkinElmer). Higher reading indicated weaker helicase activity. […]

Regarding `COc1ccc2nc(NC(=O)c3cc(C)n(-c4oc(C)nc4C#N)c3C)[nH]c2c1` [AB29522], the IC50 with U251-MG cells was 100 to 1000 nM.

For `COc1cnc2nc(NC(=O)c3cc(C)n(-c4sc(C)cc4C#N)c3C)[nH]c2c1` [AB29566], in the experiment on U251-MG cells, the IC50 is less than 100 nM.

Consider `Cc1oc(-n2c(C)cc(/C=C(\C#N)c3nc4ccccc4[nH]3)c2C)c(C#N)c1C` [Compound as control, reference compound], for which, on DHX33 protein, the IC50 was not below 400 nM.

On to `COc1ccc2nc(C(=O)Nc3cc(C)n(-c4sc(C)cc4C#N)c3C)[nH]c2c1` [AB29540], for which the IC50 in the experiment on U251-MG cells is 100 to 1000 nM.

`Cc1cc(C#N)c(-n2c(C)cc(C(=O)Nc3nc4cccnc4[nH]3)c2C)s1` [AB29554]: the IC50 in the experiment on U251-MG cells lay in the range of 1000 to 5000 nM.

Take `COc1cccc2nc(NC(=O)c3cc(C)n(-c4sc(C)cc4C#N)c3C)[nH]c12` [AB29559]: the IC50 was not below 400 nM on DHX33 protein and 1000 to 5000 nM in the experiment on U251-MG cells.

Turning to `Cc1cc(C#N)c(-n2c(C)cc(C(=O)Nc3nc4ccc(Cl)cc4[nH]3)c2C)s1` [AB29557], the IC50 in the experiment on U251-MG cells lay in the range of 100 to 1000 nM.

For `COCn1c(NC(=O)c2cc(C)n(-c3sc(C)cc3C#N)c2C)nc2ccc(OC)cc21` [AB29562], in the experiment with U251-MG cells, the IC50 was 100 to 1000 nM.

For `COc1ccc2nc(NC(=O)c3cc(C)n(Cc4cccs4)c3C)[nH]c2c1` [AB29552], the IC50 in the experiment with U251-MG cells was in the range of 1000 to 5000 nM.

As for `COc1ccc2nc(N(C)C(=O)c3cc(C)n(-c4sc(C)cc4C#N)c3C)[nH]c2c1` [AB29560], the IC50 in the experiment on U251-MG cells fell in the range of 100 to 1000 nM.

Consider `Cc1cc(C#N)c(-n2c(C)cc(C(=O)Nc3nc4ccc(OC(F)(F)F)cc4[nH]3)c2C)s1` [AB29572], for which the IC50 with U251-MG cells lay in the range of 1000 to 5000 nM.

Consider `COc1cc2[nH]c(NC(=O)c3cc(C)n(-c4sc(C)cc4C#N)c3C)nc2cn1` [AB29558], for which the IC50 on DHX33 protein was less than 20 nM; in the experiment on U251-MG cells, less than 100 nM.

With `Cc1cc(C#N)c(-n2c(C)cc(C(=O)Nc3nc4ccncc4[nH]3)c2C)s1` [AB29555], the IC50 in the experiment on U251-MG cells fell in the range of 1000 to 5000 nM.

For the compound `COc1cc2cc(NC(=O)c3cc(C)n(-c4sc(C)cc4C#N)c3C)[nH]c2cn1` [AB29573], the IC50 with U251-MG cells fell in the range of 100 to 1000 nM.

Take `COc1ccc2nc(NC(=O)c3cc(C)n(-c4sc(C)cc4C#N)c3C)n(COC(=O)C(C)(C)C)c2c1` [AB29564]: the IC50 in the experiment on U251-MG cells lay in the range of 1000 to 5000 nM.

Turning to `Cc1cc(C#N)c(-n2c(C)cc(C(=O)Nc3nc4ccccc4[nH]3)c2C)s1` [AB29553], the IC50 in the experiment on U251-MG cells is 100 to 1000 nM.

For the compound `COCn1c(NC(=O)c2cc(C)n(-c3sc(C)cc3C#N)c2C)nc2cc(OC)ccc21` [AB29563], in the experiment on U251-MG cells, the IC50 is 100 to 1000 nM.

On to `Cc1cc(C#N)c(-n2c(C)cc(C(=O)Nc3nc4ccc(F)cc4[nH]3)c2C)s1` [AB29556], for which the IC50 on DHX33 protein lay in the range of 20 to 100 nM; in the experiment with U251-MG cells, 100 to 1000 nM.

For the compound `COc1ccc2c(c1)nc(NC(=O)c1cc(C)n(-c3sc(C)cc3C#N)c1C)n2COC(=O)C(C)(C)C` [AB29565], in the experiment with U251-MG cells, the IC50 fell in the range of 1000 to 5000 nM.

For the compound `COc1ccc2nc(NC(=O)c3cc(C)n(-c4sc(C)cc4C#N)c3C)n(C)c2c1` [AB29561], the IC50 in the experiment with U251-MG cells is 100 to 1000 nM.
